Columns and labels:
[1] = test system: KG-1 cells (FGFR1-fusion); experiment: KG-1 cancer cell line cell viability assay (CellTiter-Glo 2.0); format: cell-based; conditions: Homo sapiens, 72 hours, Cell Titer Glo 2.0
From the text: (§1) Experimental Purpose: To detect the change of intracellular ATP by Cell Titer-Glo® and to evaluate the inhibitory effect of the compounds on cancer cell lines by determining the in vitro IC50 value of the compounds.
(§2) Cell Titer-Glo® 2.0 Luminescent cell viability assay reagent was purchased from Promega (Madison, WI). RT112/84 and KG-1 cell lines were purchased from American Type Culture Collection (Manassas, VA). UM-UC-14 cell line was purchased from Sigma (St. Louis, MO). RT112/84, UM-UC-14, and KG-1 cells were cultured in RPMI1640 media supplemented with 10% fetal bovine serum. Cultures were maintained at 37° C. in a humidified atmosphere of 5% C02 and 95% air.
(§3) Cell Viability Assay Procedure: Cells were plated in 96-well clear bottom/white plates (Corning #3903) at 10,000 cells/well in 100 μl of media, incubated overnight. The next day, test compound DMSO stock solutions were made at 10 mM and 2 μM final concentration. Compounds were then added to cells in a 9-dose, 10-fold dilution series starting at 30 μM with an HP 300e Digital Dispenser (each dose was applied in triplicate). DMSO was backfilled to each well up to 301 nL total volume of test compound+DMSO, and a total of 301 nL DMSO was added to a control/no test compound well in triplicate. The cells in cell culture plates were incubated with the compounds at 37° C. and 5% C02 for 72 hours. Then 50 μl of Cell Titer Glo 2.0 reagent was added to each well of the cell culture plates. The contents were covered from light and mixed on an orbital shaker at room temperature for 10 min. Luminescence was recorded by a Synergy H1 Microplate Reader (Biotek, Winooski, VT). Cells were assessed as a percentage of DMSO only treated control cells. Curves were plotted and IC50 values were calculated using the GraphPad Prism 8 program based on a sigmoidal dose-response equation (4 parameter).

[2] = target: FGFR3-BAIAP2L1 Ba/F3 cells (Homo sapiens, UniProt P22607); experiment: Ba/F3 cell viability assay (CellTiter-Glo 2.0), FGFR3-BAIAP2L1 Ba/F3; format: cell-based; conditions: for Ba/F3 FGFR1/FGFR3 Selectivity: FGFR3 > FGFR1 selectivity ratio in Ba/F3 FGFR fusion cell based assays; for IC50: read-out: Ba/F3 Cells FGFR3 (IC50 nM), FGFR3-BAIAP2L1 Ba/F3 cells, 48 hours, Cell Titer Glo 2.0
Method in brief: (§4)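 IL3-independent Ba/F3 lines driven by FGFR1-BCR or FGFR3-BAIAP2L1 fusions, in RPMI1640/10% FBS. 9-dose 10-fold series from 30 μM, triplicate, 48 h at 37 °C; viability by CellTiter-Glo 2.0 ATP luminescence relative to DMSO control, IC50 from 4-parameter sigmoidal fit.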

FGFR1-BCR Ba/F3 cells = FGFR1-BCR Ba/F3 cells (Homo sapiens, UniProt P11362); experiment: Ba/F3 cell viability assay (CellTiter-Glo 2.0), FGFR1-BCR Ba/F3; format: cell-based; conditions: read-out: Ba/F3 Cells FGFR1 (IC50 nM), 48 hours, Cell Titer Glo 2.0
Method in brief: as §4

[3] = test system: RT112/84 cells (FGFR3-fusion); experiment: RT112/84 cancer cell line cell viability assay (CellTiter-Glo 2.0); format: cell-based; conditions: Homo sapiens, 72 hours, Cell Titer Glo 2.0
From the text: as §1, §2, §3

FGFR4 = FGFR4 (Homo sapiens (Human), UniProt P22455); experiment: Kinase assay, binding constants (Kd), kinase-tagged T7 phage, qPCR
Method in brief: (§5)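 Competition binding: kinase-tagged T7 phage lysates mixed with immobilized biotinylated ligand on streptavidin beads plus compound (11-point 3-fold dilution series, 0.9% DMSO final). Bound kinase eluted with free ligand and quantified by qPCR. Kd from Hill equation fit, slope fixed at −1.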

FGFR1 = FGFR1 (Homo sapiens (Human), UniProt P11362); experiment: as above
Method in brief: as §5

FGFR3 = FGFR3 (Homo sapiens (Human), UniProt P22607); experiment: as above
Method in brief: as §5

FGFR2 = FGFR2 (Homo sapiens (Human), UniProt P21802); experiment: as above
Method in brief: as §5

FGFR3 (V555M) = FGFR3 (V555M) (Homo sapiens (Human), UniProt P22607, V555M); experiment: as above; conditions: V555M mutant
Method in brief: as §5

[4] = test system: UM-UC-14 cells (FGFR3(S249C)); experiment: UM-UC-14 cancer cell line cell viability assay (CellTiter-Glo 2.0); format: cell-based; conditions: UMUC14, 72 hours, Cell Titer Glo 2.0
From the text: as §1, §2, §3

Chain of FGFR1 (P11362 22-822): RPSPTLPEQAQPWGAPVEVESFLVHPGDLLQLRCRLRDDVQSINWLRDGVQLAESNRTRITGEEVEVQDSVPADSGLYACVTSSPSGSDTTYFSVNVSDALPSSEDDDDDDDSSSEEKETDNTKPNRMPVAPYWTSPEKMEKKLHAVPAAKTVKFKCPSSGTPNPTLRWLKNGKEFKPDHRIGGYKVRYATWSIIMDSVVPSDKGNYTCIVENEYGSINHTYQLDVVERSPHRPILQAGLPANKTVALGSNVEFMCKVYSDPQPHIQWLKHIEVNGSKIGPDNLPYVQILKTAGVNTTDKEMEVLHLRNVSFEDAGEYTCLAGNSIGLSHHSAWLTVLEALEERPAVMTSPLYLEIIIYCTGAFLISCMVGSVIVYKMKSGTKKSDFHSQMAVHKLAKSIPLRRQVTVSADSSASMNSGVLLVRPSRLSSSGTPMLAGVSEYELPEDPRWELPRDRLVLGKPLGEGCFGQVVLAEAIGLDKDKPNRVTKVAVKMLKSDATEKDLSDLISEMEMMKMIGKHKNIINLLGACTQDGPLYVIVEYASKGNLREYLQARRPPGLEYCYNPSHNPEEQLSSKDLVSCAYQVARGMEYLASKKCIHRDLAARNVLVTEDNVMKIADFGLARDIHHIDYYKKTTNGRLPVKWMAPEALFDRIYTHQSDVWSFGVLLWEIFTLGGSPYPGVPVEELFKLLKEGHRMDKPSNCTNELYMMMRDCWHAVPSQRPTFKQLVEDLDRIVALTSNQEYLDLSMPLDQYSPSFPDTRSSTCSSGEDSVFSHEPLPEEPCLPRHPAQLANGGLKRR
Chain of FGFR1-BCR Ba/F3 cells (P11362 22-822 limits assumed, change not shown): as the sequence (P11362 22-822) above
Chain of FGFR4 (P22455 22-802): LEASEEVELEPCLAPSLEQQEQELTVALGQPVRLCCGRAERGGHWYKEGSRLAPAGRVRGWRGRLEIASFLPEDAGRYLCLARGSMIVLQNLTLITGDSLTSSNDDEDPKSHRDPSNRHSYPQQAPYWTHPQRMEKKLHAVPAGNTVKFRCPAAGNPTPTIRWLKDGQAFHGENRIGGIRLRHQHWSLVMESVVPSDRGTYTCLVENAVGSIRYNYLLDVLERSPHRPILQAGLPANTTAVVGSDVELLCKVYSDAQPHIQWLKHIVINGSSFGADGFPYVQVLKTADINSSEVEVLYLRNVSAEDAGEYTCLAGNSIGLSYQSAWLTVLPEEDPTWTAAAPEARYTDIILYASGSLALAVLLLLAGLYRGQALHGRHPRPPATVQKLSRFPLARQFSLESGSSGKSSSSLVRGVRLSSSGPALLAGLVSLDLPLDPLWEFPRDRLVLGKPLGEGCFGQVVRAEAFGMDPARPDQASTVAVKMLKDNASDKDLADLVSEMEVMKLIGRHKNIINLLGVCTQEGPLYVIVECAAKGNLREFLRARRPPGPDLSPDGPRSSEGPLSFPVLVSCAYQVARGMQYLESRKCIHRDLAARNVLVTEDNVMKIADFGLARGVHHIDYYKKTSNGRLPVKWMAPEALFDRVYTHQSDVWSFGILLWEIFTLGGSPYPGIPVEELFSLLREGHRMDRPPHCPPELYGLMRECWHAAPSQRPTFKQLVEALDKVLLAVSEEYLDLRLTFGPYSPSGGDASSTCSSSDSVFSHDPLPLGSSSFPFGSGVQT
Chain of FGFR3 (V555M) (P22607 23-806 V555M): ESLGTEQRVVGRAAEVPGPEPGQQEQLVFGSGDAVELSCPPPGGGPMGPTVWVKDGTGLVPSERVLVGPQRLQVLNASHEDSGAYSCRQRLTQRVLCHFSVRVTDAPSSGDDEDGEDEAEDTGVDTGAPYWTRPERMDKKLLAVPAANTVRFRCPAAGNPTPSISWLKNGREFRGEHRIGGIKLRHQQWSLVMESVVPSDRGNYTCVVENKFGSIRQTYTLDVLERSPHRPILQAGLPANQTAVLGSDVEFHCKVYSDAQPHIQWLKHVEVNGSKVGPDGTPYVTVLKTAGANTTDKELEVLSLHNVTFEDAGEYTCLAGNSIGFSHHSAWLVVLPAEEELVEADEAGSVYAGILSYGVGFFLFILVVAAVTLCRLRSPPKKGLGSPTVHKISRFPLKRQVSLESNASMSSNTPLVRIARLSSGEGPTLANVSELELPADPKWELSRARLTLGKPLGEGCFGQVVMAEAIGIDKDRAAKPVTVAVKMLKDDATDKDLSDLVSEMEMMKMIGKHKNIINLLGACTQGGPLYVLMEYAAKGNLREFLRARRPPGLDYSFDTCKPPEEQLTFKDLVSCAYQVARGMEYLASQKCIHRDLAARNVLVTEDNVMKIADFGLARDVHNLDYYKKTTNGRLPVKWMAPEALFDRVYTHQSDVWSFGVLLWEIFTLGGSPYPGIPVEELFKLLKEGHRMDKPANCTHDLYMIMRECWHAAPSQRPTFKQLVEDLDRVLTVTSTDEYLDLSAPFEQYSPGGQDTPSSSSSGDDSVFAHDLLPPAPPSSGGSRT
Chain of FGFR3 (P22607 23-806): as the sequence (P22607 23-806 V555M) above, with M533V counted along it
Chain of FGFR3-BAIAP2L1 Ba/F3 cells (P22607 23-806 limits assumed, change not shown): as the sequence (P22607 23-806 V555M) above, with M533V counted along it
Chain of FGFR2 (P21802 22-821): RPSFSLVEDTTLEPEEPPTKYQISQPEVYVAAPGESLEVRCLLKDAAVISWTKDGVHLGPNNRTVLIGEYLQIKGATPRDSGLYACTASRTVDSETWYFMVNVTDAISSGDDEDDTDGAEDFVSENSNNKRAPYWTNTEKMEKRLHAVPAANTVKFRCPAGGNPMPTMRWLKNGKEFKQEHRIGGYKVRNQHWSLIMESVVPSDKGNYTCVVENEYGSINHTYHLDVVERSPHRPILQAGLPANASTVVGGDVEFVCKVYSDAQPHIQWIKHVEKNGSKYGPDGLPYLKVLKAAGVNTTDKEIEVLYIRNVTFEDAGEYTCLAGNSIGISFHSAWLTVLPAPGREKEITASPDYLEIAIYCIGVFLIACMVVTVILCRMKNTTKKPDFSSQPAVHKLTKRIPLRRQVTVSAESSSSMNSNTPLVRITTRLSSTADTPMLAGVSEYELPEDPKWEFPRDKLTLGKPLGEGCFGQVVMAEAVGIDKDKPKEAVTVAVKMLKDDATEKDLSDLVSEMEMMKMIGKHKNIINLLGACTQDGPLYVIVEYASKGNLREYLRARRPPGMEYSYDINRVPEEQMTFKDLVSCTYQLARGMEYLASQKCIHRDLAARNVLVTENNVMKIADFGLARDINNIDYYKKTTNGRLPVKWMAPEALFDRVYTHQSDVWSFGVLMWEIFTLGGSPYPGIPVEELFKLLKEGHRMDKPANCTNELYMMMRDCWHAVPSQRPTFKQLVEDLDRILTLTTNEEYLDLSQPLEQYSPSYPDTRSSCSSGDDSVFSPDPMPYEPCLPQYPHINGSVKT

Structure (SMILES)	IC50 [1] [nM]	Ba/F3 FGFR1/FGFR3 Selectivity [2]	IC50 [2] [nM]	IC50 (FGFR1-BCR Ba/F3 cells) [nM]	IC50 [3] [nM]	Kd (FGFR4) [nM]	Kd (FGFR1) [nM]	Kd (FGFR3) [nM]	Kd (FGFR2) [nM]	Kd (FGFR3 (V555M)) [nM]	IC50 [4] [nM]
CCOC(=O)N1CC2(C1)CN(c1ccc(-c3n[nH]c4ccc(O[C@H](C)c5c(Cl)cncc5Cl)cc34)cn1)C2 [Example 121, ethyl 6-[5-[5-[(1R)-1-(3,5-dichloro-4-pyridyl)ethoxy]-1H-indazol-3-yl]-2-pyridyl]-2,6-diazaspiro[3.3]heptane-2-carboxylate]	100 to 300	14	1 to 20	100 to 300	1 to 20	1 to 20	20 to 100	1 to 20	20 to 100	1 to 20	–
C[C@@H](Oc1ccc2[nH]nc(-c3cnc(N4CC5(CCS(=O)(=O)C5)C4)nc3)c2c1)c1c(Cl)cncc1Cl [Example 122, 2-[5-[5-[(1R)-1-(3,5-dichloro-4-pyridyl)ethoxy]-1H-indazol-3-yl]pyrimidin-2-yl]-6λ^6-thia-2-azaspiro[3.4]octane 6,6-dioxide]	100 to 300	7	1 to 20	20 to 100	1 to 20	1 to 20	1 to 20	1 to 20	20 to 100	1 to 20	–
COC(=O)N1CC2(C1)CN(c1ccc(-c3n[nH]c4ccc(O[C@H](C)c5c(Cl)cncc5Cl)cc34)cn1)C2 [Example 123, methyl 6-[5-[5-[(1R)-1-(3,5-dichloro-4-pyridyl)ethoxy]-1H-indazol-3-yl]-2-pyridyl]-2,6-diazaspiro[3.3]heptane-2-carboxylate]	100 to 300	15	1 to 20	20 to 100	1 to 20	1 to 20	1 to 20	1 to 20	1 to 20	1 to 20	–
CCS(=O)(=O)N1CC2(CN(c3ccc(-c4n[nH]c5ccc(O[C@H](C)c6c(Cl)cncc6Cl)cc45)cn3)C2)C1 [Example 124, 5-[(1R)-1-(3,5-dichloro-4-pyridyl)ethoxy]-3-[6-(2-ethylsulfonyl-2,6-diazaspiro[3.3]heptan-6-yl)-3-pyridyl]-1H-indazole]	100 to 300	17	1 to 20	100 to 300	1 to 20	1 to 20	20 to 100	1 to 20	20 to 100	1 to 20	–
COC(=O)N1CCC2(CC1)CN(c1ccc(-c3n[nH]c4ccc(O[C@H](C)c5c(Cl)cncc5Cl)cc34)cn1)C2 [Example 125, methyl 2-[5-[5-[(1R)-1-(3,5-dichloro-4-pyridyl)ethoxy]-1H-indazol-3-yl]-2-pyridyl]-2,7-diazaspiro[3.5]nonane-7-carboxylate]	100 to 300	16	1 to 20	100 to 300	1 to 20	1 to 20	20 to 100	1 to 20	20 to 100	1 to 20	–
C[C@@H](Oc1ccc2[nH]nc(-c3cnc(N4CCC5(CCS(=O)(=O)C5)C4)nc3)c2c1)c1c(Cl)cncc1Cl (stereo partly drawn) [Example 127, 7-[5-[5-[(1R)-1-(3,5-dichloro-4-pyridyl)ethoxy]-1H-indazol-3-yl]pyrimidin-2-yl]-2λ^6-thia-7-azaspiro[4.4]nonane 2,2-dioxide]	100 to 300	11	1 to 20	100 to 300	20 to 100	1 to 20	20 to 100	1 to 20	20 to 100	1 to 20	–
C[C@@H](Oc1ccc2[nH]nc(-c3cnc(N4CC5(CCN(S(C)(=O)=O)C5)C4)nc3)c2c1)c1c(Cl)cncc1Cl [Example 157, 5-[(1R)-1-(3,5-dichloro-4-pyridyl)ethoxy]-3-[2-(7-methylsulfonyl-2,7-diazaspiro[3.4]octan-2-yl)pyrimidin-5-yl]-1H-indazole]	–	7	1 to 20	100 to 300	20 to 100	1 to 20	20 to 100	1 to 20	20 to 100	1 to 20	100 to 300

From US20240109865A1, “INDAZOLE COMPOUNDS AS KINASE INHIBITORS” (TYRA BIOSCIENCES, INC., priority 2020, published 2024)
